Source: US12102640B2, “Use of dopamine and serotonin receptor antagonists for treatment in a subject with retinal degeneration” (United States Government as represented by the Department …, priority 2015, dated 2024)
“Also recorded” adds a separate entry of the source.

Key:
[1] = system: long-latency ON-center P23H rat RGC; experiment: Light responses of long-latency ON-center RGCs to a 250-μm spot (spike rasters, PSTHs); assay type: cell-based; conditions: sulpiride 12 µM, clozapine 5 μM, aripiprazole 5 μM, eticlopride 1 µM, MDL-100907 640 nM
Experimental: (§1) On the day of an experiment, a rat was euthanized with sodium pentobarbital (150 mg/kg, i.p.), and the eyes were removed and hemisected under normal room light. After removal of the vitreous humour from each eye, one eyecup was transferred to a holding vessel containing bicarbonate-buffered Ames medium (Sigma-Aldrich), which was continuously gassed at room temperature with 5% CO2/95% O2. The retina of the other eyecup was gently peeled from the retinal pigment epithelium/choroid and trimmed into a square of ˜12 mm^2. The retina was then placed photoreceptor side down in a small volume (0.1 ml) chamber. The chamber was mounted on a fixed-stage upright microscope (Nikon Eclipse E600FN), and the retina superfused at 1.5 ml/min with bicarbonate-buffered Ames medium supplemented with 2 mg/ml D-(+) glucose and equilibrated with 5% CO2/95% O2. An in-line heating device (Warner Instruments) was used to maintain recording temperature at 35-36° C. The retina of the other eyecup was used later in the day.
(§2) Electrical Recording: Action potentials (spikes) were recorded extracellularly from individual RGCs. With the aid of red light (>630 nm) that was delivered from below the chamber, the tip of a glass insulated platinum/tungsten microelectrode (0.6-1.0 MΩ impedance; Thomas Recording GmbH, Germany) was visually advanced to the retinal surface with a motor-driven micromanipulator. Extracellular potentials from RGCs were amplified and bandpass filtered at 100 to 5000 Hz by a differential amplifier (Xcell-3; FHC, Bowdoin, ME). […] Spikes from single RGCs were converted to standard transistor to transistor logic (TTL) pulses with a time-amplitude window discriminator (APM Neural Spike Discriminator, FHC). A laboratory data acquisition system (1401 Processor and Spike2 software; Cambridge Electronic Design Ltd., Cambridge, UK) was used to digitize the TTL pulses and raw spike train data.
(§3) Light from a mercury arc lamp illuminated an aperture that was focused on the retina from above, through the 4× objective of the microscope. The image produced on the retina was either a 250-μm or 1.5-mm diameter spot, which was centered on the recorded RGC. In the light path was a 545 nm interference filter (bandwidth, 30 nm). The intensity of the unattenuated light stimulus on the retina, measured with a spectroradiometer (ILT900-R, International Light Technologies), was 8.5×10^17 photons/cm^2/s. Light intensities are expressed herein in log units relative to the unattenuated light intensity. An electromechanical shutter (Uniblitz, Rochester, NY) was used to control the stimulus duration, which was set to 100 ms in constructing intensity response curves. During recordings from RGCs, light flashes were presented with interstimulus intervals of 3-15 s (depending upon the duration and intensity of the light stimulus) to avoid any adapting effect of the previous flash. All experiments were performed in a dimly lighted room (10 lux).
(−)-Sulpiride and clozapine were purchased from Tocris Bioscience (Minneapolis, MN). Aripiprazole was purchased from Sigma-Aldrich (St. Louis, MO). Sulpiride and clozapine were dissolved in a small amount of dimethylsulphoxide (DMSO) and diluted in physiological saline. Aripiprazole was dissolved in a small amount of 1 mM HCl and diluted in physiological saline. As in Example 1, the drug solutions were applied to the bathing solution using calibrated syringe pumps (Razel Scientific Instruments). Drugs were bath applied for ˜10 min to ensure stable responses before effects were examined. Only one cell was studied in each retina to avoid possible residual drug effects. P23H rat RGCs were identified as either ON-center or OFF-center cells from their responses to a 500-700 ms flash of a small (250-μm diameter) spot of light centered over the receptive field. ON-center cells elicit an excitatory response to the onset but not to the offset of the spot of light, whereas OFF-center cells elicit an excitatory response to the offset of the spot of light. […]

[2] = system: P23H rat RGCs; experiment: Light sensitivity (intensity-response functions) of RGCs in isolated P23H rat retina, extracellular recording; assay type: cell-based; conditions: for number of RGCs tested whose sensitivity was increased / average lowering of light intensity (increase in light sensitivity): P23H rat RGCs; for number of RGCs tested whose sensitivity was increased: one cell per retina; for average lowering of light intensity (increase in light sensitivity): difference of means before vs during drug; for light intensity at which the pre-drug half-maximum response was obtained in the presence of the drug, average: mean±SD of P23H rat RGCs (n=4-12), 100 ms flashes, concentration not given; for increase in light sensitivity of the representative RGC / light intensity that evoked the pre-drug half-maximum response with application of the drug, representative RGC: single representative P23H rat RGC; for light intensity that evoked the pre-drug half-maximum response with application of the drug, representative RGC: bath applied ~10 min, relative to 8.5×10^17 photons/cm^2/s
Experimental: P23H-line 1 homozygous rats (age range 22-37 weeks) were used. Breeding pairs of P23H-line 1 homozygous rats were generously donated by Dr. Matthew LaVail (University of California San Francisco, CA). The room light was kept on a 12 hr light/dark cycle using standard fluorescent lighting. During the light cycle, the illumination at the level of the cages was 100-200 lux.
as §1, §2, §3
(−)-Sulpiride was purchased from Tocris Bioscience (Minneapolis, MN). Sulpiride was dissolved in a small amount of dimethylsulphoxide (DMSO) and diluted in physiological saline. The drug solution was applied to the bathing solution using a calibrated syringe pump (Razel Scientific Instruments). Drug was bath applied for ˜10 min to ensure stable responses before effects were examined. Only one cell was studied in each retina to avoid possible residual drug effects.
Intensity-response curves were generated from the responses of RGCs to 100 ms flashes of light. The light stimulus was either a 250-μm or 1.5-mm diameter spot. […]

[3] = system: D2 and D3 receptors over D4 receptors; conditions: compared with sulpiride; cited from earlier work
[4] = system: OFF-center P23H rat RGC; experiment: Light responses of OFF-center RGCs that show a long-latency ON response; assay type: cell-based; conditions: 250-μm spot; sulpiride 9 µM, aripiprazole 5 µM
Experimental: as §1, §2
as §3, with “During recordings from RGCs, light flashes were presented with interstimulus intervals of 3-15 s (depending upon the duration and intensity of the light stimulus) to avoid any adapting effect of the previous flash. All experiments were performed in a dimly lighted room (10 lux).” left out

[5] = pooled data of MDL-100907 and SB-242084, 6 P23H rat RGCs
[6] = eticlopride 1 μM, 6 P23H rat RGCs
[7] = sulpiride 13 µM, L-745,870 1 µM

With `COc1cccc([C@H](O)C2CCN(CCc3ccc(F)cc3)CC2)c1OC` [MDL-100907] the “effect on the OFF response” value [1] was “appeared; also recorded: brought out an OFF response”, the “effect on the long-latency ON response” value [1] was “abolished; also recorded: eliminated” and the “average increase in sensitivity, pooled 5-HT2 antagonists” value [2, 5] was 0.25 log unit. The “average light sensitivity during drug, pooled 5-HT2 antagonists” value [2, 5] was −3.25 log units.

With `CCc1cc(Cl)c(OC)c(C(=O)NC[C@@H]2CCCN2CC)c1O` [eticlopride, (−)-Eticlopride] the “effect on the OFF response” value [1] was “appeared; also recorded: brought out an OFF response”, the “effect on the long-latency ON response” value [1] was “abolished; also recorded: eliminated” and the “average increase in light sensitivity” value [2, 6] was 0.31 log unit. For the same compound, the “average light sensitivity during drug” value [2, 6] was −3.07 log units, the “cells showing an increase in light sensitivity” value [2, 6] was “All cells” and the “selectivity for D2 and D3 receptors over D4 receptors” value [3] was “greater selectivity than sulpiride”.

With `CCN1CCCC1CNC(=O)c1cc(S(=O)(=O)CC)c(N)cc1OC` (stereo not drawn) [amisulpride] the “number of RGCs tested whose sensitivity was increased” value [2] was “all 5”, the “average lowering of light intensity (increase in light sensitivity)” value [2] was 0.39 log unit and the “light intensity at which the pre-drug half-maximum response was obtained in the presence of the drug, average” value (from here on “light intensity … of the drug, average”) [2] was −3.67±0.30 log units attenuation.

For `CCN1CCC[C@H]1CNC(=O)c1cc(S(N)(=O)=O)ccc1OC` [sulpiride, (−)-Sulpiride], the “effect on the OFF response” value [1] was “appeared; also recorded: brought out an OFF response”, the “effect on the long-latency ON response” value [1] was “abolished; also recorded: eliminated” and the “number of RGCs tested whose sensitivity was increased” value [2] was 8 of the 9. The “average lowering of light intensity (increase in light sensitivity)” value [2] was 0.29 log unit, the “light intensity … of the drug, average” value [2] was −3.17±0.27 log units attenuation and the “shift of the intensity-response curve” value ([2]; single P23H rat RGC, sulpiride 13 µM, L-745,870 1 µM) was “to the left”. For the same compound, the “increase in light sensitivity of the representative RGC” value [2, 7] was 0.44 log unit, the “light intensity that evoked the pre-drug half-maximum response with application of the drug, representative RGC” value [2, 7] was −3.47 log units attenuation and the “effect on the OFF response” value [4] was “remained intact; also recorded: spared”. The “effect on the delayed (long-latency) ON response” value [4] was “reduced; also recorded: diminished”.

With `O=C1CCc2ccc(OCCCCN3CCN(c4cccc(Cl)c4Cl)CC3)cc2N1` [aripiprazole] the “effect on the OFF response” value [1] was “appeared; also recorded: brought out an OFF response”, the “effect on the long-latency ON response” value [1] was “still present; also recorded: did not eliminate” and the “average lowering of light intensity (increase in light sensitivity)” value [2] was 0.27 log unit. The “light intensity … of the drug, average” value [2] was −3.54±0.36 log units attenuation, the “effect on the OFF response” value [4] was “remained intact; also recorded: spared” and the “effect on the delayed (long-latency) ON response” value [4] was “reduced; also recorded: eliminated”.

In the case of `O=C(CCCN1CCC(O)(c2ccc(Cl)cc2)CC1)c1ccc(F)cc1` [haloperidol], the “number of RGCs tested whose sensitivity was increased” value [2] is reported as “all 4”, the “average lowering of light intensity (increase in light sensitivity)” value [2] is reported as 0.28 log unit and the “light intensity … of the drug, average” value [2] is reported as −3.39±0.43 log units attenuation.

With `CN1CCN(C2=Nc3cc(Cl)ccc3Nc3ccccc32)CC1` [clozapine] the “average lowering of light intensity (increase in light sensitivity)” value [2] was 0.30 log unit and the “light intensity … of the drug, average” value [2] was −3.56±0.55 log units attenuation.

For `Cl.Cl.Cl.Clc1ccc(N2CCN(Cc3c[nH]c4ncccc34)CC2)cc1` [L-745,870, 3-(4-[4-Chlorophenyl]piperazin-1-yl)-methyl-1-H-pyrrolo[2,3-b]pyridinetrihydrochloride], the “number of RGCs tested whose sensitivity was increased” value [2] was 11 of the 12, the “average lowering of light intensity (increase in light sensitivity)” value [2] was 0.21 log unit and the “light intensity … of the drug, average” value [2] was −3.31±0.54 log units attenuation. The “increase in light sensitivity of the representative RGC” value [2, 7] was 0.34 log unit and the “light intensity that evoked the pre-drug half-maximum response with application of the drug, representative RGC” value [2, 7] was −3.69 log units attenuation.
